Measurements reported in PubChem BioAssay (NCI).
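Step 1: Grow cells in 96-well plates. Step 2: Expose to compound for 48 hours at 5 concentrations. Step 3: Interpolate endpoints linearly; if unreached, use highest concentration. GI50: concentration for 50% inhibition of growth. TGI marks complete inhibition of growth.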

What was measured:
Test in all cases: NCI tumour cell line growth inhibition, 48 h
[1] = test system: 786-0 renal
[2] = test system: HCT-116 colon
[3] = test system: MOLT-4 leukemia
[4] = test system: SN12C renal
[5] = test system: HS 578T breast
[6] = test system: UACC-62 melanoma
[7] = test system: SF-295 CNS
[8] = test system: DU-145 prostate
[9] = test system: SW-620 colon
[10] = test system: OVCAR-4 ovarian
[11] = test system: ACHN renal
[12] = test system: LOX IMVI melanoma
[13] = test system: SK-MEL-5 melanoma
[14] = test system: HCT-15 colon
[15] = test system: UO-31 renal
[16] = test system: OVCAR-5 ovarian
[17] = test system: PC-3 prostate
[18] = test system: A549 NSCLC
[19] = test system: HCC-2998 colon
[20] = test system: HT29 colon
[21] = test system: HOP-62 NSCLC
[22] = test system: RPMI-8226 leukemia
[23] = test system: RXF 393 renal
[24] = test system: M14 melanoma
[25] = test system: NCI-H226 lung
[26] = test system: MALME-3M melanoma
[27] = test system: BT-549 breast
[28] = test system: HL-60(TB) leukemia
[29] = test system: SNB-19 CNS
[30] = test system: CCRF-CEM leukemia
[31] = test system: MCF7 breast
[32] = test system: SF-539 CNS
[33] = test system: OVCAR-8 ovarian
[34] = test system: EKVX NSCLC
[35] = test system: SK-OV-3 ovarian
[36] = test system: HOP-92 NSCLC
[37] = test system: K-562 leukemia
[38] = test system: TK-10 renal
[39] = test system: SF-268 CNS
[40] = test system: NCI-H460 lung
[41] = test system: SK-MEL-28 melanoma
[42] = test system: NCI-H522 lung
[43] = test system: UACC-257 melanoma
[44] = test system: A498 renal
[45] = test system: COLO 205 colon
[46] = test system: SNB-75 CNS
[47] = test system: IGROV1 ovarian
[48] = test system: U251 CNS
[49] = test system: NCI/ADR-RES ovarian
[50] = test system: KM12 colon
[51] = test system: SK-MEL-2 melanoma
[52] = test system: CAKI-1 renal
[53] = test system: MDA-MB-435
[54] = test system: OVCAR-3 ovarian
[55] = test system: SR leukemia

## Cc1cccc(N2CCN(C3=C(Cl)C(=O)c4ncccc4C3=O)CC2)c1
[1]
  GI50: 2.33 µM
  TGI: 5.36 µM
[2]
  GI50: 1.67 µM
  TGI: 3.07 µM
[3]
  GI50: 2.01 µM
  TGI: 5.45 µM
[4]
  GI50: 4.28 µM
  TGI: 21.9 µM
[5]
  GI50: 5.74 µM
  TGI: 38.5 µM
[6]
  GI50: 3.49 µM
  TGI: 13 µM
[7]
  GI50: 12.1 µM
  TGI: 25.5 µM
[8]
  GI50: 6.86 µM
  TGI: 26.3 µM
[9]
  GI50: 1.42 µM
  TGI: 3 µM
[10]
  GI50: 1.74 µM
  TGI: 3.26 µM
[11]
  GI50: 1.72 µM
  TGI: 3.51 µM
[12]
  GI50: 1.57 µM
  TGI: 3.02 µM
[13]
  GI50: 9.63 µM
  TGI: 21.5 µM
[14]
  GI50: 1.71 µM
  TGI: 4.05 µM
[15]
  GI50: 1.48 µM
  TGI: 2.81 µM
[16]
  GI50: 15 µM
  TGI: 31.5 µM
[17]
  GI50: 4.48 µM
  TGI: 17.5 µM
[18]
  GI50: 15.7 µM
  TGI: 36 µM
[19]
  GI50: 8.53 µM
  TGI: 22.1 µM
[20]
  GI50: 6.09 µM
  TGI: 21 µM
[21]
  GI50: 17 µM
  TGI: 31 µM
[22]
  GI50: 2.08 µM
  TGI: 5.47 µM
[23]
  GI50: 1.72 µM
  TGI: 3.15 µM
[24]
  GI50: 2.69 µM
  TGI: 9.36 µM
[25]
  GI50: 12.9 µM
  TGI: 33.3 µM
[26]
  GI50: 1.83 µM
  TGI: 3.77 µM
[27]
  GI50: 3.61 µM
  TGI: 9.58 µM
[28]
  GI50: 1.27 µM
  TGI: 3.82 µM
[29]
  GI50: 14.4 µM
  TGI: 29.5 µM
[30]
  GI50: 2.03 µM
  TGI: 5.79 µM
[31]
  GI50: 1.63 µM
  TGI: 3.75 µM
[32]
  GI50: 3.91 µM
  TGI: 15.6 µM
[33]
  GI50: 2.66 µM
  TGI: 9.3 µM
[34]
  GI50: 1.78 µM
  TGI: 3.34 µM
[35]
  GI50: 12.8 µM
  TGI: 42.9 µM
[36]
  GI50: 1.48 µM
  TGI: 2.86 µM
[37]
  GI50: 1.8 µM
  TGI: 5.31 µM
[38]
  GI50: 3.96 µM
  TGI: 8.89 µM
[39]
  GI50: 14.4 µM
  TGI: 32.2 µM
[40]
  GI50: 5.49 µM
  TGI: 21.3 µM
[41]
  GI50: 2.6 µM
  TGI: 6.61 µM
[42]
  GI50: 1.74 µM
  TGI: 3.42 µM
[43]
  GI50: 2.05 µM
  TGI: 4.97 µM
[44]
  GI50: 13.1 µM
  TGI: 26.5 µM
[45]
  GI50: 1.94 µM
  TGI: 3.79 µM
[46]
  GI50: 10.9 µM
  TGI: 27.9 µM
[47]
  GI50: 2.53 µM
  TGI: 6.58 µM
[48]
  GI50: 6.96 µM
  TGI: 21.1 µM
[49]
  GI50: 2.44 µM
  TGI: 7.45 µM
[50]
  GI50: 19 µM
  TGI: 36.4 µM
[51]
  GI50: 6.33 µM
  TGI: 19.2 µM
[52]
  GI50: 2.86 µM
  TGI: 11.6 µM
[53]
  GI50: 1.81 µM
  TGI: 3.35 µM

## CC(C)=CCC[C@](C)(O)[C@H]1CC[C@]2(C)[C@@H]1CC[C@@H]1[C@@]3(C)CC[C@H](N)C(C)(C)[C@@H]3CC[C@]12C
[3]
  GI50: 2.1 µM
  TGI: 4.98 µM
[5]
  GI50: 2.21 µM
  TGI: 5.01 µM
[6]
  GI50: 1.66 µM
  TGI: 3.21 µM
[7]
  GI50: 1.81 µM
  TGI: 3.39 µM
[8]
  GI50: 1.92 µM
  TGI: 3.63 µM
[10]
  GI50: 2.19 µM
  TGI: 5.74 µM
[11]
  GI50: 1.78 µM
  TGI: 3.16 µM
[15]
  GI50: 1.54 µM
  TGI: 2.9 µM
[16]
  GI50: 1.64 µM
  TGI: 3.09 µM
[17]
  GI50: 1.98 µM
  TGI: 4.23 µM
[54]
  GI50: 1.77 µM
  TGI: 3.27 µM
[55]
  GI50: 1.17 µM
  TGI: 3.58 µM
[18]
  GI50: 1.87 µM
  TGI: 3.77 µM
[23]
  GI50: 1.49 µM
  TGI: 2.85 µM
[27]
  GI50: 14.3 µM
  TGI: 55.8 µM
[28]
  GI50: 1.87 µM
  TGI: 3.9 µM
[30]
  GI50: 3.02 µM
  TGI: > 100 µM
[33]
  GI50: 2.18 µM
  TGI: 4.96 µM
[35]
  GI50: 3.23 µM
  TGI: 10.9 µM
[36]
  GI50: 1.76 µM
  TGI: 5.46 µM
[37]
  GI50: 1.97 µM
  TGI: 5.71 µM
[38]
  GI50: 6.01 µM
  TGI: 21.1 µM
[39]
  GI50: 4.19 µM
  TGI: 21.8 µM
[41]
  GI50: 1.8 µM
  TGI: 3.35 µM
[42]
  GI50: 1.97 µM
  TGI: 4.28 µM
[43]
  GI50: 2.06 µM
  TGI: 4.47 µM
[44]
  GI50: 1.88 µM
  TGI: 3.55 µM
[45]
  GI50: 1.9 µM
  TGI: 3.68 µM
[46]
  GI50: 10.5 µM
  TGI: 26.4 µM
[51]
  GI50: 2.02 µM
  TGI: 4.05 µM
[52]
  GI50: 1.85 µM
  TGI: 3.38 µM
[53]
  GI50: 1.87 µM
  TGI: 3.52 µM
